The source of these data is ChEMBL document CHEMBL1121723 (J Med Chem, 1981).

The structures appear in SMILES notation.

One experiment deals with Thromboxane-A synthase (Oryctolagus cuniculus). The experiment can be described thus: Inhibitory activity against rabbit thromboxane synthetase.
Conditions: not given
Consider `O=C(CCCCCCCn1ccnc1)c1ccccc1`, for which half-maximal inhibition (IC50) was put at 134 nM.

For the compound `c1cn(CCCCCCCn2ccnc2)cn1`, it took 2000 nM to reach half-maximal inhibition (IC50).

In the case of `CC(C)(Oc1ccc(Cn2ccnc2)cc1)C(=O)O`, the IC50 (in general, the concentration needed to halve the response being measured) is 25 nM.

Compound `O=C(O)CCCc1ccc(-n2ccnc2)cc1` came in with an IC50 of 120 nM.

Regarding `O=C(O)C(CO)CCCCCCn1ccnc1` (stereo not given), the IC50 came to 250 nM.

`C[S+]([O-])CCCCCCCCn1ccnc1` (stereo not given): the IC50 came to 3300 nM.

`O=C(O)Cc1ccc(CCn2ccnc2)cc1` displayed an IC50 of 1500 nM.

Take `CC(C)(CC/C=C/C=C/C(=O)O)n1ccnc1`: 450 nM corresponded to half-maximal inhibition (IC50).

Consider `O=C(O)COc1ccc(Cn2ccnc2)cc1`, for which the IC50 came to 40 nM.

The compound `O=C(O)C(O)CCCCCCn1ccnc1` (stereo not given) returned an IC50 of 140 nM.

Compound `O=C(O)/C=C/c1cccc(Cn2ccnc2)c1` gave an IC50 of 32 nM.

With `CC(=O)CCCCCCCn1ccnc1`, the IC50 is > 1000 nM.

Turning to `NC(CCCCCCn1ccnc1)C(=O)O` (stereo not given), the IC50 was > 1000 nM.

Regarding `CC(Oc1ccc(Cn2ccnc2)cc1)C(=O)O` (stereo not given), the IC50 stood at 38 nM.

In the case of `O=C(O)CCCc1ccc(Cn2ccnc2)cc1`, inhibition was half-maximal at 1200 nM (IC50).

Take `O=C(O)C(CCCCCCn1ccnc1)C(=O)O`: the IC50 was 550 nM.

For the compound `O=C(O)c1ccc(/C=C/Cn2ccnc2)cc1`, half-maximal inhibition (IC50) was put at 44 nM.

Compound `O=C(O)CCCCCCc1c[nH]cn1` had an IC50 of 20000 nM.

Consider `O=C(O)/C=C/c1ccc(OCCn2ccnc2)cc1`, for which the IC50 is 250 nM.

`O=C(O)COc1ccccc1Cn1ccnc1` yielded an IC50 of 210 nM.

Regarding `O=C(O)CCCCCCc1ncc[nH]1`, half-maximal inhibition (IC50) was put at 20000 nM.

Consider `Cc1nccn1CCCCCCC(=O)O`, for which the IC50 was > 1000 nM.

In the case of `O=C(O)c1ccc(CCCn2ccnc2)cc1`, inhibition was half-maximal at 5 nM (IC50).

Take `CC(C)(CCCC#CCn1ccnc1)C(=O)O`: the IC50 came out at 9 nM.

The next experiment deals with Thromboxane-A synthase (Oryctolagus cuniculus). Put plainly: Compound was tested for its inhibitory activity against Thromboxane synthetase. The settings on record: concentration not given here.
Regarding `O=S(=O)(O)CCCCCCn1ccnc1`, the inhibition (usually the change of the read-out against control, counted positive when it falls) came out at 8.8%.

Turning to `N#CCCCCCCCn1ccnc1`, the inhibition came out at 0%.

`SCCCCCCCCn1ccnc1` displayed an inhibition of 17.5%.

In turn, `CSCCCCCCCCn1ccnc1` returned an inhibition of 11.4%.

A further experiment shares this test system. The experiment can be described thus: Compound was tested for its inhibitory activity against Thromboxane synthetase at 25 nM.
Conditions: not given
`c1cn(CCCCCCCn2ccnc2)cn1` registered an inhibition of 13.4%.

In turn, `C[S+]([O-])CCCCCCCCn1ccnc1` (stereo not given) came in with an inhibition of 9%.
